Consider six compounds from ChEMBL document CHEMBL1122916, “Synthesis of xanthines as adenosine antagonists, a practical quantitative structure-activity relationship application” (J Med Chem, 1985).

A short description of series [1]: Equilibrium constant (pKa) was determined. Format: physicochemical.
Series [2] can be described thus: Solubility in 0.1 M phosphate buffer at pH 7.4. Format: physicochemical.
Series [3] in a line: Solubility in 0.1 N HCl. It counts as physicochemical.
The target of series [4] is T1, Adenosine receptor A1 (Rattus norvegicus, UniProt P25099).
T1 sequence (P25099 whole entry): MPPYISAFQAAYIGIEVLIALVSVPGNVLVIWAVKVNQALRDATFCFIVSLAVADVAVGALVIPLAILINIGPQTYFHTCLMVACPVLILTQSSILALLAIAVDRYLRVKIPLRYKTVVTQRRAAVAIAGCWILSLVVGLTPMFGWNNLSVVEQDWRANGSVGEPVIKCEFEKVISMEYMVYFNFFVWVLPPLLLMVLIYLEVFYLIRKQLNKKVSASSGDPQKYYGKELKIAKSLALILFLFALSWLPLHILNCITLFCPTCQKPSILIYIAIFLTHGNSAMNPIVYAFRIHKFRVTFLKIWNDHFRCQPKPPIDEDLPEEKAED
Put plainly: Binding affinity against rat brain adenosine A1 receptor by using N6-[3H]- cyclohexyladenosine as radioligand.

The nature of series [5]: Partition coefficient (logP). Format: physicochemical. Particulars: octanol/water.
For series [6], the target named is T2, Adenosine receptor A1 (Bos taurus, UniProt P28190).
T2 sequence (P28190 whole entry): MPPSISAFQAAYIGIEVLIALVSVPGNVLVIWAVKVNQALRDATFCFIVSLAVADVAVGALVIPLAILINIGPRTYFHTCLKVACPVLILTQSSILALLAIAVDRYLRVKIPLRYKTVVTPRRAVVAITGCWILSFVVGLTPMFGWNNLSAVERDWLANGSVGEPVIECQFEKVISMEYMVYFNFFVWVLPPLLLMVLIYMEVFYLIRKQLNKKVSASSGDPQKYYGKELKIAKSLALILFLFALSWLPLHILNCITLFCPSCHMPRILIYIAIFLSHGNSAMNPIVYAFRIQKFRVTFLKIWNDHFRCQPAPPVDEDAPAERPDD
Description: Binding affinity against bovine brain adenosine A1 receptor by using N6-[3H]- cyclohexyladenosine

The mark [7] stands for this setting: phosphate buffer, read-out: Solubility.

In brackets after ≈: the same amount, converted by molar mass.

A word on the pKa: it is the pH at which an ionisable group is half protonated. The low end stands for a stronger acid or weaker base, the high end for a weaker acid or stronger base. Usually solubility stands for the dissolved amount per volume that the medium holds. By IC50 is commonly meant the concentration at which inhibition is half-maximal. As usually defined, the logP is a log measure of how a compound divides between an organic and an aqueous phase. In turn, `CCn1c(=O)c2nc(-c3ccc(S(=O)(=O)NCCN(C)C)cc3)[nH]c2n(CC)c1=O` showed a pKa in series [1] of 6.8. Besides, the solubility in series [2] (setting [7]) was 110 µg/mL (≈ 253 µM); in series [3], 11500 µg/mL (≈ 26500 µM). For the same compound, the IC50 is 116 nM at Adenosine receptor A1 [4] and 3.3 nM against Adenosine receptor A1 [6]. The logP in series [5] amounted to 2.57.

As to `CCCn1c(=O)c2[nH]c(-c3ccc(S(=O)(=O)O)cc3)nc2n(CCC)c1=O`, in series [1], the pKa is less than 2. For the same compound, the solubility in series [2] (setting [7]) is more than 24000 µg/mL; in series [3], 1300 µg/mL (≈ 3310 µM). Further, the results for the IC50 on Adenosine receptor A1 [4] and at Adenosine receptor A1 [6] were 120 nM and 3.4 nM, respectively. For the same compound, the lipophilicity (logP) in series [5] is -0.03.

Consider `CCn1c(=O)c2[nH]c(-c3ccc(S(=O)(=O)O)cc3)nc2n(CC)c1=O`, for which, in series [1], the pKa was less than 2. Also, the solubility in series [2] (setting [7]) was more than 57000 µg/mL; in series [3], more than 8000 µg/mL. The IC50 at Adenosine receptor A1 [4] stood at 5540 nM; on Adenosine receptor A1 [6] it was 755 nM. In addition, the logP in series [5] was -0.97.

In series [1], `CCCn1c(=O)c2nc(-c3ccccc3N)[nH]c2n(CCC)c1=O` had a pKa of 9.1. Moreover, the solubility in series [2] (setting [7]) was less than 1 µg/mL; in series [3], 4 µg/mL (≈ 12.2 µM). For the same compound, the IC50 at Adenosine receptor A1 [4] was 41 nM; against Adenosine receptor A1 [6], 0.75 nM. In series [5], this compound yielded a logP of 3.54.

In turn, `CCCn1c(=O)c2[nH]c(-c3ccc(Cl)cc3N)nc2n(CCC)c1=O` showed a pKa in series [1] of 8.4. The solubility in series [2] (setting [7]) is less than 0.1 µg/mL; in series [3], 0.4 µg/mL (≈ 1.11 µM). This compound also came in with a log partition coefficient (logP) in series [5] of 4.02.

As for `CCCn1c(=O)c2nc(-c3ccc(S(=O)(=O)NCCN(C)C)cc3)[nH]c2n(CCC)c1=O`, the pKa in series [1] came out at 6. For the same compound, the solubility in series [2] (buffer) was 50 µg/mL (≈ 108 µM); in series [3], 19900 µg/mL (≈ 43000 µM). Moreover, the IC50 at Adenosine receptor A1 [4] came to 6.5 nM; on Adenosine receptor A1 [6], 0.05 nM. The compound further had a logP in series [5] of 3.32.
